{
  "source": "patent US12516010B2",
  "about": "“Crystal form of reduced coenzyme Q10 and preparation method therefor” ([…] BIOTECHNOLOGY (HAINAN) CO., LTD, priority 2023, dated 2026)",
  "key": {"[1]": {"assay": "stability test: storage in a vacuum bag at 25° C. in the dark, HPLC analysis", "type": "physicochemical", "description": "The crystal of reduced coenzyme Q10 obtained in Example 1 and the crystal obtained in Comparative Example 1 were each placed in a vacuum bag, and stored at 25° C. in the dark. The weight ratio of reduced coenzyme Q10 to oxidized coenzyme Q10 was calculated by the HPLC analysis, and the results are shown in Table 1.\nConditions for HPLC Analysis:\n• Chromatographic column: (Agilent) ZORBAX Extend C18 4.6×150 mm, 5 um • Mobile phase: mobile phase A: acetonitrile, mobile phase B: isopropanol, mobile phase C: methanol • Detection wavelength: 290 nm • Flow rate: 1.5 mL/min • Column temperature: 35° C. • Injection concentration: 1 mg/mL • Injection volume: 20 μL"}, "[2]": {"assay": "solubility in purified water", "type": "physicochemical", "conditions": "25° C."}},
  "data": [
    {"smiles": "COc1c(O)c(C)c(C/C=C(\\C)CC/C=C(\\C)CC/C=C(\\C)CC/C=C(\\C)CC/C=C(\\C)CC/C=C(\\C)CC/C=C(\\C)CC/C=C(\\C)CC/C=C(\\C)CCC=C(C)C)c(O)c1OC", "note": "[Comparative Example 1, reduced coenzyme Q10]", "values": [
      {"measurement": "weight ratio of reduced coenzyme Q10 to oxidized coenzyme Q10: oxidized coenzyme Q10 part", "setting": "[1]; day 0, vacuum bag", "value": 0.65},
      {"measurement": "weight ratio of reduced coenzyme Q10 to oxidized coenzyme Q10: reduced coenzyme Q10 part", "setting": "[1]; day 0, vacuum bag", "value": 98.20},
      {"measurement": "weight ratio of reduced coenzyme Q10 to oxidized coenzyme Q10: oxidized coenzyme Q10 part", "setting": "[1]; day 15, vacuum bag", "value": 1.63},
      {"measurement": "weight ratio of reduced coenzyme Q10 to oxidized coenzyme Q10: reduced coenzyme Q10 part", "setting": "[1]; day 15, vacuum bag", "value": 97.10},
      {"measurement": "weight ratio of reduced coenzyme Q10 to oxidized coenzyme Q10: oxidized coenzyme Q10 part", "setting": "[1]; day 30, vacuum bag", "value": 5.47},
      {"measurement": "weight ratio of reduced coenzyme Q10 to oxidized coenzyme Q10: reduced coenzyme Q10 part", "setting": "[1]; day 30, vacuum bag", "value": 93.40},
      {"measurement": "weight ratio of reduced coenzyme Q10 to oxidized coenzyme Q10: oxidized coenzyme Q10 part", "setting": "[1]; day 180, vacuum bag", "value": 8.8},
      {"measurement": "weight ratio of reduced coenzyme Q10 to oxidized coenzyme Q10: reduced coenzyme Q10 part", "setting": "[1]; day 180, vacuum bag", "value": 89.60},
      {"measurement": "weight ratio of reduced coenzyme Q10 to oxidized coenzyme Q10: oxidized coenzyme Q10 part", "setting": "[1]; day 360, vacuum bag", "value": 17.0},
      {"measurement": "weight ratio of reduced coenzyme Q10 to oxidized coenzyme Q10: reduced coenzyme Q10 part", "setting": "[1]; day 360, vacuum bag", "value": 82.0}
    ]},
    {"smiles": "COc1c(O)c(C)c(C/C=C(\\C)CC/C=C(\\C)CC/C=C(\\C)CC/C=C(\\C)CC/C=C(\\C)CC/C=C(\\C)CC/C=C(\\C)CC/C=C(\\C)CC/C=C(\\C)CCC=C(C)C)c(O)c1OC", "note": "[Example 1, reduced coenzyme Q10]", "values": [
      {"measurement": "solubility in purified water", "setting": "[2]", "value": 0.5, "unit": "% by weight"},
      {"measurement": "weight ratio of reduced coenzyme Q10 to oxidized coenzyme Q10: oxidized coenzyme Q10 part", "setting": "[1]; day 0, vacuum bag", "value": 0.40},
      {"measurement": "weight ratio of reduced coenzyme Q10 to oxidized coenzyme Q10: reduced coenzyme Q10 part", "setting": "[1]; day 0, vacuum bag", "value": 99.18},
      {"measurement": "weight ratio of reduced coenzyme Q10 to oxidized coenzyme Q10: oxidized coenzyme Q10 part", "setting": "[1]; day 15, vacuum bag", "value": 0.50},
      {"measurement": "weight ratio of reduced coenzyme Q10 to oxidized coenzyme Q10: reduced coenzyme Q10 part", "setting": "[1]; day 15, vacuum bag", "value": 99.00},
      {"measurement": "weight ratio of reduced coenzyme Q10 to oxidized coenzyme Q10: oxidized coenzyme Q10 part", "setting": "[1]; day 30, vacuum bag", "value": 0.80},
      {"measurement": "weight ratio of reduced coenzyme Q10 to oxidized coenzyme Q10: reduced coenzyme Q10 part", "setting": "[1]; day 30, vacuum bag", "value": 98.01},
      {"measurement": "weight ratio of reduced coenzyme Q10 to oxidized coenzyme Q10: oxidized coenzyme Q10 part", "setting": "[1]; day 180, vacuum bag", "value": 1.10},
      {"measurement": "weight ratio of reduced coenzyme Q10 to oxidized coenzyme Q10: reduced coenzyme Q10 part", "setting": "[1]; day 180, vacuum bag", "value": 97.90},
      {"measurement": "weight ratio of reduced coenzyme Q10 to oxidized coenzyme Q10: oxidized coenzyme Q10 part", "setting": "[1]; day 360, vacuum bag", "value": 1.94},
      {"measurement": "weight ratio of reduced coenzyme Q10 to oxidized coenzyme Q10: reduced coenzyme Q10 part", "setting": "[1]; day 360, vacuum bag", "value": 97.33}
    ]},
    {"smiles": "COc1c(O)c(C)c(C/C=C(\\C)CC/C=C(\\C)CC/C=C(\\C)CC/C=C(\\C)CC/C=C(\\C)CC/C=C(\\C)CC/C=C(\\C)CC/C=C(\\C)CC/C=C(\\C)CCC=C(C)C)c(O)c1OC", "note": "[Example 2, reduced coenzyme Q10]", "values": [
      {"measurement": "solubility in purified water", "setting": "[2]", "value": 0.5, "unit": "% by weight"}
    ]}
  ]
}
